# In PMC7311426, “An amphipathic peptide with antibiotic activity against multidrug-resistant Gram-negative bacteria” (Nature Communications, 2020):
# System: E. coli DSA 443 ESBL
# Assay: Murine urinary tract infection (UTI) model
# Format: in vivo, E. coli in OF-1 mice
# Conditions: Prism column statistics
# Procedure: Peritonitis and UTI murine models were performed at the Department of Microbiology & Infection Control, Statens Serum Institute, Copenhagen, Denmark, under approval by the National Committee of Animal Ethics, Denmark, and adhered to the standards of EU Directive 2010/63/EU. The mouse pneumonia model was performed by Evotec Ltd, United Kingdom, under UK Home Office Licenses and with local ethical committee clearance. All animal studies were contracted by Adenium Biotech ApS.
# Peptides were prepared in Ringer’s acetate pH 6.0 (vehicle) at 34 mg mL^−1. Comparator antibiotics included meropenem (Meronem®, AstraZeneca), polymyxin B sulfate (Sigma) and tobramycin (Novartis).
# The E. coli UTI in vivo model was prepared using an E. coli DSA 443 ESBL strain, in neutropenic outbred OF-1 female mice (Charles River, France). Starting 4 days before inoculation mice were given drinking water with 5% glucose. On day 0 mice were anaesthetized and inoculated with 50 μL bacterial suspension (1 × 10^9 CFU mL^−1) of E. coli DSA 443 ESBL, via a catheter in the urethra into the bladder. On days 1 and 2, mice were treated i.v. with vehicle (n = 18) or with twice-daily administrations of 5 mg kg^−1 AA139 (n = 12) or 40 mg kg^−1 meropenem (n = 12). Urine samples were taken on days 1–3 and on day 3 mice were killed and urine, kidneys, and bladder were collected for CFU counts on agar.
compound,measurement,setting,value
"C[C@@H](O)[C@H]1C(=O)N2C(C(=O)O)=C(S[C@@H]3CN[C@H](C(=O)N(C)C)C3)[C@H](C)[C@H]12 [Meropenem, meropenem, reference compound]","DAY 3 BLADDER, Median","ESBL E. coli DSA 443, Meropenem 40 mg kg-1, bladder, median of n = 12",3.32
same,"DAY 3 KIDNEY, Mean","ESBL E. coli DSA 443, Meropenem 40 mg kg-1, kidney, mean of n = 12",1.644
same,"DAY 3 KIDNEY, Median","ESBL E. coli DSA 443, Meropenem 40 mg kg-1, kidney, median of n = 12",1.4
same,"DAY 3 URINE, Mean","ESBL E. coli DSA 443, Meropenem 40 mg kg-1, urine, mean of n = 11",1.229
same,"DAY 3 URINE, Median","ESBL E. coli DSA 443, Meropenem 40 mg kg-1, urine, median of n = 11",1
